Like-named read-outs stand apart in the source and are kept apart here.
How the values were obtained:
Assay in all cases: Crossreactive receptor transcriptional assay (Gal4 hybrid)
Assay type in all cases: cell-based
[1] = biological target: T1, hAR (androgen receptor) (Homo sapiens, UniProt P10275)
T1 construct: 646-919; expressed in transfected cells; host or cells: CHO cells, transient transfection
T1 sequence (P10275 647-920): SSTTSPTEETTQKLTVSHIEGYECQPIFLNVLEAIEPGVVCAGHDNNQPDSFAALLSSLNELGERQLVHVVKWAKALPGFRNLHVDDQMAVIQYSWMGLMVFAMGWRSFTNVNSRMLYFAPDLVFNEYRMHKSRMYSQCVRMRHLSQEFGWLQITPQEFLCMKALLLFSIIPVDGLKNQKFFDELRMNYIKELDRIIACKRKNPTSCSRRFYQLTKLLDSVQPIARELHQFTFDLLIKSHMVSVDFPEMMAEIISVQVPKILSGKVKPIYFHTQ
Method: (§1) A firefly luciferase reporter gene for Gal4 DBD hybrid receptors, such as Gal4-RORγ, contains five copies of the Gal4 17-mer response element in its promoter and the coding sequence for firefly luciferase (pG5-luc, Promega). CHO (Chinese Hamster Ovary) cells were cultured in Ham's F12 medium supplemented with 10% fetal calf serum (Gemini Biologicals), 10 μg/ml penicillin and streptomycin, and were maintained in a humidified 37° C. incubator (Thermo Electron, Steri-Cycle) with 5% CO2. 24 hours before transfection, cells were plated in T175 flasks (5×10^6 cells/flask) or T75 flasks (1.7×10^6 cells/flask). Transient transfection of CHO cells was performed using TransIT-CHO reagents (Minis, Madison, Wis.) with a mixing ratio of 2:6:1 between plasmid DNA (in μg), TransIT-CHO (in μl) and CHO-mojo (in μl).
(§2) Plates are maintained at 37° C. in a humidified atmosphere with 7% CO2 overnight. Four (4) hours after cell seeding, compounds dissolved in DMSO at 10 mM were added to cells at final concentrations of 20 micromolar (μM) to 20 nanomolar (nM) in 0.2% DMSO in triplicate plates. Approximately 40 hours later, cytotoxicity in the assay well was characterized by addition of the dye resazurin (O'Brien, Wilson et al. 2000) to a final concentration of 3 μM. […] Percent viability was determined as 2 hour fluorescence, minus background at t=0 hours, normalized to DMSO controls. For detection of luciferase activity, media was removed from plates after the measurement of resazurin conversion, and SteadyLite luciferase reagent (Perkin-Elmer) was added (30 μl/well). Luminescence is detected with a Victor 2-V plate reader (Perkin-Elmer) and normalized to luciferase activity of DMSO control wells alone.

[2] = biological target: T2, hERα (Estrogen receptor-alpha) (Homo sapiens, UniProt P03372)
T2 construct: 249-595; expressed in transfected cells; host or cells: CHO cells, transient transfection
T2 sequence (P03372 249-595): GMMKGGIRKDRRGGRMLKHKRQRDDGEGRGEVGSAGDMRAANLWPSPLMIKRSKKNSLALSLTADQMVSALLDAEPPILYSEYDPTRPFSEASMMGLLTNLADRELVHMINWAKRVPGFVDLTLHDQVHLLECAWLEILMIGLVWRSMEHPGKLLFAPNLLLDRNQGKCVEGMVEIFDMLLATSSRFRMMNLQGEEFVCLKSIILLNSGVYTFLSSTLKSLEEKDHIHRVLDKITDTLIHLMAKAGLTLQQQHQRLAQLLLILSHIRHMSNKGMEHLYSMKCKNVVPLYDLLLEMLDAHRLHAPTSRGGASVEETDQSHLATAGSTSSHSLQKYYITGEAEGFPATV
Method: as §1, §2

[3] = biological target: T3, hPPARδ (Homo sapiens, UniProt Q03181)
T3 construct: 138-441; expressed in transfected cells; host or cells: CHO cells, transient transfection
T3 sequence (Q03181 138-441): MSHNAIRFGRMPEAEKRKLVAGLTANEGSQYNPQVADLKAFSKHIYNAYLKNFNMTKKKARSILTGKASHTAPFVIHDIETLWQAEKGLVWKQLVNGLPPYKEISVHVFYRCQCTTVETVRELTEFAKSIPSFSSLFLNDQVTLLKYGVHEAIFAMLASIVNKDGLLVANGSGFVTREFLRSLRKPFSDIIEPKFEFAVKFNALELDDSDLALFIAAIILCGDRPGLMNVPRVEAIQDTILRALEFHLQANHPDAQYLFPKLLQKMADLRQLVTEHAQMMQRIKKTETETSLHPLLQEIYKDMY
Method: as §1, §2

[4] = biological target: T4, hVDR (Vitamin D receptor) (Homo sapiens, UniProt P11473)
T4 construct: 90-427; expressed in transfected cells; host or cells: CHO cells, transient transfection
T4 sequence (P11473 90-427): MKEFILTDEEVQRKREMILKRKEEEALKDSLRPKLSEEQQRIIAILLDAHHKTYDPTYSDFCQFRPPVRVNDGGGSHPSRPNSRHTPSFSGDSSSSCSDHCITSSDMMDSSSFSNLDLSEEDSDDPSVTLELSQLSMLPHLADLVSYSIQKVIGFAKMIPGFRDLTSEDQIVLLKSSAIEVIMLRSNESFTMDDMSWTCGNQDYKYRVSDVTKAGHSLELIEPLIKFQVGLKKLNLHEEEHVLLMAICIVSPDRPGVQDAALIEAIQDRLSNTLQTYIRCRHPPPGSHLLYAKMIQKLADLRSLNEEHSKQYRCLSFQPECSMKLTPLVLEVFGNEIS
Method: as §1, with “cells/flask).” for “cells/flask). Transient transfection of CHO cells was performed using TransIT-CHO reagents (Minis, Madison, Wis.) with a mixing ratio of 2:6:1 between plasmid DNA (in μg), TransIT-CHO (in μl) and CHO-mojo (in μl).”
as §2, with “Four (4) hours after cell seeding, compounds dissolved in DMSO at 10 mM were added to cells at final concentrations of 20 micromolar (μM) to 20 nanomolar (nM) in 0.2% DMSO in triplicate plates.” left out

[5] = Table 6, read-out: Potency (EC50) at hAR
[6] = Table 6, read-out: Potency (EC50) at hERα
[7] = Table 6, RORγ ligands: no significant activity at 20 μM, read-out: Potency (EC50) at hPPARδ
[8] = Table 6, read-out: Potency (EC50) at hVDR

Measured: EC50

CC(=O)O[C@H]1CC[C@@]2(C)C(CC[C@]3(C)C2C(=O)C=C2C4[C@@H](C)[C@H](C)CC[C@]4(C(=O)O)CC[C@]23C)C1(C)C (stereo in doubt) [OR-13571, 10-Acetoxy-1,2,6a,6b,9,9,12a-heptamethyl-13-oxo-1,3,4,5,6,6a,6b,7,8,8a,9,10,11,12,12a,12b,13,14b-octadecahydro-2H-picene-4a-carboxylic acid]
> 10 µM: [1]; [5] | [2]; [6] | [3]; [7] | [4]; [8]

O=S(=O)(c1ccccc1)N(CC(F)(F)F)c1ccc(C(O)(C(F)(F)F)C(F)(F)F)cc1 [Compound T0901317, N-(2,2,2-Trifluoro-ethyl)-N-[4-(2,2,2-trifluoro-1-hydroxy-1-trifluoromethyl-ethyl)-phenyl]-benzenesulfonamide, reference compound]
> 10 µM: [1]; [5] | [2]; [6] | [3]; [7] | [4]; [8]

C[C@@H]1CC[C@@]2(OC1)O[C@H]1C[C@H]3[C@@H]4CC[C@H]5C[C@@H](O)CC[C@]5(C)[C@H]4C[C@@H](O)[C@]3(C)[C@H]1[C@@H]2C [OR-885, 5α,20α, 22α, 25D-SPIROSTAN-3β, 12β-DIOL]
> 10 µM: [1] | [2] | [3] | [4]

CCN(c1ccc(C(O)(C(F)(F)F)C(F)(F)F)cc1)S(=O)(=O)c1ccc([N+](=O)[O-])cc1 [OR-1050, N-Ethyl-4-nitro-N-[4-(2,2,2-trifluoro-1-hydroxy-1-trifluoromethyl-ethyl)-phenyl]-benzenesulfonamide]
> 10 µM: [1]; [5] | [2]; [6] | [3]; [7] | [4]; [8]

COc1c(C=NNc2nc(N3CCCCC3)nc(N3CCCCC3)n2)cccc1[N+](=O)[O-] [OR-2161, N-(4,6-Di-piperidin-1-yl-[1,3,5]triazin-2-yl)-N′-(2-methoxy-3-nitro-benzylidene)-hydrazine]
> 10 µM: [1]; [5] | [2]; [6] | [3]; [7] | [4]; [8]

COC(C)CCC(C)C1CCC2C3CC(O)C4CC(O)CCC4(C)C3CCC12C (stereo not shown) [OR-12872, 17-(4-Methoxy-1-methyl-pentyl)-10,13-dimethyl-hexadecahydro-cyclopenta[a]phenanthrene-3,6-diol]
> 10 µM: [1]; [5] | [2]; [6] | [3]; [7] | [4]; [8]

CCn1c(CNc2ccc(Cl)cc2)nnc1SCC(=O)Nc1cccc2ccccc12 [OR-133008, 2-{5-[(4-Chloro-phenylamino)-methyl]-4-ethyl-4H-[1,2,4]triazol-3-ylsulfanyl}-N-naphthalen-1-yl-acetamide]
> 10 µM: [1]; [5] | [2]; [6] | [3]; [7] | [4]; [8]

From patent US8389739B1, “Modulators of retinoid-related orphan receptor gamma” (Orphagen Pharmaceuticals, priority 2006, dated 2013)
